Measured values as given in US20230045421A1 (priority 2018, published 2023).
Like-named read-outs stand apart in the source and are kept apart here.

Test system: HBV rcDNA
Assay: HepDE19 assay with bDNA quantitation of HBV rcDNA
Assay type: cell-based, hepatitis B virus
Summary of the method: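 HepDE19 cells (HepG2-derived, Tet-regulated HBV replication) were deprived of tetracycline and then exposed to compounds for 7 days at 37 °C in 0.5% DMSO, 8-point titration from 25 μM. rcDNA was quantified by bDNA and EC50/EC90 came from 4-parameter fits. CC50 was measured by CellTiter-Glo ATP content on replicate plates after 4 days.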

[1] = read-out: DE-19bDNA EC50; HepDE19 assay, inhibition of formation of rcDNA
[2] = HepDE19 assay, inhibition of formation of rcDNA; read-out: DE-19bDNA EC50
[3] = Hepatitis B virus, HepDE19, HepDE19 assay, inhibition of formation of rcDNA; read-out: DE-19bDNA EC50

Compound | EC50 [2] | other results
CCOCCN(C(=O)Nc1ccc(F)c(Cl)c1)C(C)c1c[nH]c(=O)c2ccccc12 (single isomer, unassigned) [Compound 109, 3-(3-Chloro-4-fluorophenyl)-1-(2-ethoxyethyl)-1-(1-(1-oxo-1,2-dihydroisoquinolin-4-yl)ethyl)urea] |  | EC50 [1]: 8000 nM
CCOCCN(C(=O)Nc1ccc(F)c(Cl)c1)C(C)c1c[nH]c(=O)c2ccccc12 (single isomer, unassigned) [Compound 110, 3-(3-Chloro-4-fluorophenyl)-1-(2-ethoxyethyl)-1-(1-(1-oxo-1,2-dihydroisoquinolin-4-yl)ethyl)urea] |  | EC50 [1]: 170 nM
CC(c1c[nH]c(=O)c2ccccc12)N(CCC#N)C(=O)Nc1ccc(F)c(Cl)c1 (single isomer, unassigned) [Compound 112, 3-(3-Chloro-4-fluorophenyl)-1-(2-cyanoethyl)-1-(1-(1-oxo-1,2-dihydroisoquinolin-4-yl)ethyl)urea] | 2800 nM | 
CC(c1c[nH]c(=O)c2ccccc12)N(CCC#N)C(=O)Nc1ccc(F)c(Cl)c1 (single isomer, unassigned) [Compound 113, 3-(3-Chloro-4-fluorophenyl)-1-(2-cyanoethyl)-1-(1-(1-oxo-1,2-dihydroisoquinolin-4-yl)ethyl)urea] | 60 nM | 
CC(c1c[nH]c(=O)c2ccccc12)N(CCCC#N)C(=O)Nc1ccc(F)c(Cl)c1 (single isomer, unassigned) [Compound 114, 3-(3-Chloro-4-fluorophenyl)-1-(3-cyanopropyl)-1-(1-(1-oxo-1,2-dihydroisoquinolin-4-yl)ethyl)urea] | 1900 nM | 
CC(c1c[nH]c(=O)c2ccccc12)N(CCCC#N)C(=O)Nc1ccc(F)c(Cl)c1 (single isomer, unassigned) [Compound 115, 3-(3-Chloro-4-fluorophenyl)-1-(3-cyanopropyl)-1-(1-(1-oxo-1,2-dihydroisoquinolin-4-yl)ethyl)urea] | 10 nM | 
CNC(=O)CCN(C(=O)Nc1ccc(F)c(Cl)c1)C(C)c1c[nH]c(=O)c2ccccc12 (single isomer, unassigned) [Compound 117, 3-(3-(3-Chloro-4-fluorophenyl)-1-(1-(1-oxo-1,2-dihydroisoquinolin-4-yl)ethyl)ureido)-N-methylpropanamide] | 13000 nM | 
CNC(=O)CCN(C(=O)Nc1ccc(F)c(Cl)c1)C(C)c1c[nH]c(=O)c2ccccc12 (single isomer, unassigned) [Compound 118, 3-(3-(3-Chloro-4-fluorophenyl)-1-(1-(1-oxo-1,2-dihydroisoquinolin-4-yl)ethyl)ureido)-N-methylpropanamide] | 140 nM | 
CC(c1c[nH]c(=O)c2ccccc12)N(CCS(N)(=O)=O)C(=O)Nc1ccc(F)c(Cl)c1 (single isomer, unassigned) [Compound 119, 2-(3-(3-Chloro-4-fluorophenyl)-1-(1-(1-oxo-1,2-dihydroisoquinolin-4-yl)ethyl)ureido) ethanesulfonamide] | 70 nM | 
CC(c1c[nH]c(=O)c2ccccc12)N(CCS(N)(=O)=O)C(=O)Nc1ccc(F)c(Cl)c1 (single isomer, unassigned) [Compound 120, 2-(3-(3-Chloro-4-fluorophenyl)-1-(1-(1-oxo-1,2-dihydroisoquinolin-4-yl)ethyl)ureido) ethanesulfonamide] | 18000 nM | 
COCCOCCN(C(=O)Nc1ccc(F)c(Cl)c1)C(C)c1cnc(OC)c2ccccc12 (single isomer, unassigned) [Compound 121, 3-(3-Chloro-4-fluorophenyl)-1-(2-(2-methoxyethoxy)ethyl)-1-(1-(1-methoxyisoquinolin-4-yl)ethyl)urea] | 23000 nM | 
COCCOCCN(C(=O)Nc1ccc(F)c(Cl)c1)C(C)c1cnc(OC)c2ccccc12 (single isomer, unassigned) [Compound 122, 3-(3-Chloro-4-fluorophenyl)-1-(2-(2-methoxyethoxy)ethyl)-1-(1-(1-methoxyisoquinolin-4-yl)ethyl)urea] | 1200 nM | 
COCCOCCN(C(=O)Nc1ccc(F)c(Cl)c1)C(C)c1c[nH]c(=O)c2ccccc12 (single isomer, unassigned) [Compound 124, 3-(3-Chloro-4-fluorophenyl)-1-(2-(2-methoxyethoxy)ethyl)-1-(1-(1-oxo-1,2-dihydroisoquinolin-4-yl)ethyl)urea] |  | EC50 [1]: 560 nM
CCOCCN(C(=O)Nc1ccc(F)c(Cl)c1)C(C)c1cnc(OC)c2ccccc12 (single isomer, unassigned) [Compound 125, 3-(3-Chloro-4-fluorophenyl)-1-(2-ethoxyethyl)-1-(1-(1-methoxyisoquinolin-4-yl)ethyl)urea] | 20000 nM | 
CCOCCN(C(=O)Nc1ccc(F)c(Cl)c1)C(C)c1cnc(OC)c2ccccc12 (single isomer, unassigned) [Compound 126, 3-(3-Chloro-4-fluorophenyl)-1-(2-ethoxyethyl)-1-(1-(1-methoxyisoquinolin-4-yl)ethyl)urea] | 630 nM | 
CNC(=O)CN(C(=O)Nc1ccc(F)c(Cl)c1)C(C)c1c[nH]c(=O)c2ccccc12 (single isomer, unassigned) [Compound 129, 2-(3-(3-Chloro-4-fluorophenyl)-1-(1-(1-oxo-1,2-dihydroisoquinolin-4-yl)ethyl)ureido)-N-methylacetamide] |  | EC50 [3]: 530 nM
CC(c1c[nH]c(=O)c2ccccc12)N(CCCO)C(=O)Nc1ccc(F)c(Cl)c1 (single isomer, unassigned) [Compound 130, 3-(3-Chloro-4-fluorophenyl)-1-(3-hydroxypropyl)-1-(1-(1-oxo-1,2-dihydroisoquinolin-4-yl)ethyl)urea] |  | EC50 [1]: 7900 nM
CC(c1c[nH]c(=O)c2ccccc12)N(CCCO)C(=O)Nc1ccc(F)c(Cl)c1 (single isomer, unassigned) [Compound 131, 3-(3-Chloro-4-fluorophenyl)-1-(3-hydroxypropyl)-1-(1-(1-oxo-1,2-dihydroisoquinolin-4-yl)ethyl)urea] |  | EC50 [1]: 10 nM
CC(c1cnc(OCc2ncn(C)n2)c2ccccc12)N(C)C(=O)Nc1ccc(F)c(Cl)c1 (single isomer, unassigned) [Compound 132, 3-(3-Chloro-4-fluorophenyl)-1-methyl-1-(1-(1-((1-methyl-1H-1,2,4-triazol-3-yl)methoxy)isoquinolin-4-yl)ethyl)urea] | 60 nM | 
CC(c1cnc(OCc2ncn(C)n2)c2ccccc12)N(C)C(=O)Nc1ccc(F)c(Cl)c1 (single isomer, unassigned) [Compound 133, 3-(3-Chloro-4-fluorophenyl)-1-methyl-1-(1-(1-((1-methyl-1H-1,2,4-triazol-3-yl)methoxy)isoquinolin-4-yl)ethyl)urea] | 5900 nM | 
CC(=O)NCCN(C(=O)Nc1ccc(F)c(Cl)c1)C(C)c1c[nH]c(=O)c2ccccc12 (single isomer, unassigned) [Compound 138, N-(2-(3-(3-Chloro-4-fluorophenyl)-1-(1-(1-oxo-1,2-dihydroisoquinolin-4-yl)ethyl)ureido)ethyl)acetamide] | 19000 nM | 
CC(=O)NCCN(C(=O)Nc1ccc(F)c(Cl)c1)C(C)c1c[nH]c(=O)c2ccccc12 (single isomer, unassigned) [Compound 139, N-(2-(3-(3-Chloro-4-fluorophenyl)-1-(1-(1-oxo-1,2-dihydroisoquinolin-4-yl)ethyl)ureido)ethyl)acetamide] | 460 nM | 
COc1ncc(C(C)N(CCCO)C(=O)Nc2ccc(F)c(Cl)c2)c2ccccc12 (single isomer, unassigned) [Compound 140, 3-(3-Chloro-4-fluorophenyl)-1-(3-hydroxypropyl)-1-(1-(1-methoxyisoquinolin-4-yl)ethyl)urea] |  | EC50 [3]: 230 nM
CC(c1c[nH]c(=O)c2ccccc12)N(CC1CCOCC1)C(=O)Nc1ccc(F)c(Cl)c1 (single isomer, unassigned) [Compound 141, 3-(3-Chloro-4-fluorophenyl)-1-(1-(1-oxo-1,2-dihydroisoquinolin-4-yl)ethyl)-1-((tetrahydro-2H-pyran-4-yl)methyl)urea] | 3400 nM | 
CC(c1c[nH]c(=O)c2ccccc12)N(CC1CCOCC1)C(=O)Nc1ccc(F)c(Cl)c1 (single isomer, unassigned) [Compound 142, 3-(3-Chloro-4-fluorophenyl)-1-(1-(1-oxo-1,2-dihydroisoquinolin-4-yl)ethyl)-1-((tetrahydro-2H-pyran-4-yl)methyl)urea] | 40 nM | 
CC(C)CN(C(=O)Nc1ccc(F)c(Cl)c1)C(C)c1c[nH]c(=O)c2ccccc12 (single isomer, unassigned) [Compound 143, 3-(3-chloro-4-fluorophenyl)-1-isobutyl-1-(1-(1-oxo-1,2-dihydroisoquinolin-4-yl)ethyl)urea] | 850 nM | 
CC(C)CN(C(=O)Nc1ccc(F)c(Cl)c1)C(C)c1c[nH]c(=O)c2ccccc12 (single isomer, unassigned) [Compound 144, 3-(3-chloro-4-fluorophenyl)-1-isobutyl-1-(1-(1-oxo-1,2-dihydroisoquinolin-4-yl)ethyl)urea] | 10 nM | 
CC(c1cnc(OCc2nc[nH]n2)c2ccccc12)N(C)C(=O)Nc1ccc(F)c(Cl)c1 (single isomer, unassigned) [Compound 145, 1-(1-(1-((1H-1,2,4-Triazol-3-yl)methoxy)isoquinolin-4-yl)ethyl)-3-(3-chloro-4-fluorophenyl)-1-methylurea] | 4200 nM | 
CC(c1cnc(OCc2nc[nH]n2)c2ccccc12)N(C)C(=O)Nc1ccc(F)c(Cl)c1 (single isomer, unassigned) [Compound 146, 1-(1-(1-((1H-1,2,4-Triazol-3-yl)methoxy)isoquinolin-4-yl)ethyl)-3-(3-chloro-4-fluorophenyl)-1-methylurea] | 50 nM | 
CC(c1c[nH]c(=O)c2ccccc12)N(CCCCO)C(=O)Nc1ccc(F)c(Cl)c1 (single isomer, unassigned) [Compound 149, 3-(3-Chloro-4-fluorophenyl)-1-(4-hydroxybutyl)-1-(1-(1-oxo-1,2-dihydroisoquinolin-4-yl)ethyl)urea] | 3300 nM | 
